According to article PMC7822874, “Chemoprotective antimalarials identified through quantitative high-throughput screening of Plasmodium blood and liver stage parasites” (Scientific Reports, 2021):
Where “and” joins values, the source holds several entries; their conditions need not be identical. Identical values can stand only once.

Columns and labels:
[1] = tested on: Plasmodium falciparum Dd2 asexual blood stage parasites; assay: microbe, parasite or virus in culture; parameters: species or system Plasmodium falciparum Dd2 in human erythrocytes; single determination (one 11-point concentration-response curve); settings: Plasmodium falciparum, DD2, Erythrocyte, 72 h; read-out: AC50
[2] = tested on: T1, Plasmodium falciparum Dd2-attB (parental line), asexual blood stages; assay: microbe, parasite or virus in culture; parameters: replicate k of 3 (each line is one of three independent assays; the three lines of one compound and parasite line follow each other); settings: n = 1; for Individual replicates / Log AC50 (M): 72 h; for AC50: Plasmodium falciparum, DD2, 72 h, read-out: Individual replicates / Log AC50 (converted)
T1 construct: Dd2-attB, the isogenic parental line
Summary of the method: (§1)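 Statistics: two-sided Student's t-test between parental and transgenic values, from three independent assays. The transgene encodes a fumarate-dependent DHODH from yeast, independent of the parasite mETC.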

[3] = tested on: T2, Plasmodium falciparum Dd2-attB-ScDHODH (transgenic line expressing yeast DHODH), asexual blood stages; assay: organism not typed; parameters: replicate k of 3 (each line is one of three independent assays; the three lines of one compound and parasite line follow each other)
T2 construct: Dd2-attB-ScDHODH, the transgenic line that expresses yeast DHODH
Summary of the method: as §1

[4] = 72 h; n = 1; read-out: Individual replicates / Log AC50 (converted)

| SMILES | AC50 [1] [µM] | Individual replicates / Log AC50 (M) [2] | AC50 [2] [µM] | Individual replicates / Log AC50 (M) ([3]; 72 h, n = 1) | AC50 [3, 4] [µM] | Individual replicates / Log AC50 (M) ([3]; 72 h; n = 1) |
| --- | --- | --- | --- | --- | --- | --- |
| Oc1ccc(CNc2ccc(C(F)(F)F)cc2Cl)c2cccnc12 [NCGC00183375-01] | 10.6 | -5.2986 Log AC50 (M) and -5.3486 Log AC50 (M) | 5.03 | -5.2486 Log AC50 (M) and -5.0986 Log AC50 (M) | 5.03 |  |
| CCCCOC(=O)c1ccnc2cc(C(OCCN3CCCCC3)c3ccccc3Cl)sc12 (stereo not shown) [NCGC00481505-01] |  | -5.2486 Log AC50 (M) and -5.0986 Log AC50 (M) | 8.94 | -5.0486 Log AC50 (M) and -5.1486 Log AC50 (M) | 14.2 |  |
| CC(C)OC(=O)c1ccnc2cc(C(OCCN3CCCCC3)c3ccccc3Cl)sc12 (stereo not shown) [NCGC00481510-01] |  | -5.1986 Log AC50 (M) | 7.1 | -5.0986 Log AC50 (M) | 8.94 |  |
| CCOC(=O)c1ccnc2cc(C(OCCN3CCCCC3)c3ccccc3Cl)sc12 (stereo not shown) [NCGC00481512-01] |  | -5.1486 Log AC50 (M) | 5.64 | -5.1986 Log AC50 (M) and -5.0986 Log AC50 (M) | 7.97 |  |
| Cc1ccccc1C(OCCN1CCCCC1)c1cc2nccc(B(O)O)c2s1 (stereo not shown) [NCGC00481524-01] |  | -4.8486 Log AC50 (M) and -4.7986 Log AC50 (M) | 14.2 |  | 15.9 | -4.7986 Log AC50 (M) |
| Cc1ccccc1C(OCCN1CCCCC1)c1cc2nccc(Cl)c2s1 (stereo not shown) [NCGC00481525-01] |  | -5.0486 Log AC50 (M) and -4.9986 Log AC50 (M) | 8.94 | -5.0486 Log AC50 (M) | 10 |  |
| CCCCOC(=O)c1ccnc2cc(C(OCCN3CCCCC3)c3ccccc3C)sc12 (stereo not shown) [NCGC00481621-01] |  | -5.0986 Log AC50 (M) and -5.0486 Log AC50 (M) | 8.94 | -4.7986 Log AC50 (M) | 14.2 |  |
| CCCCOC(=O)c1ccnc2cc(C(=O)N(CCN(C)C)c3ccccc3)sc12 [NCGC00481684-01] |  | -4.7986 Log AC50 (M) | 17.8 |  | 14.2 |  |
| CCCCOC(=O)c1ccnc2cc(-c3nc4ccccc4[nH]3)sc12 [NCGC00482448-01] |  | -5.7486 Log AC50 (M) and -5.6986 Log AC50 (M) | 2 | -5.5986 Log AC50 (M) and -5.6986 Log AC50 (M) | 2 |  |
| N#CNC(=O)c1ccnc2cc(C(OCCN3CCCCC3)c3ccccc3Cl)sc12 (stereo not shown) [NCGC00483126-01] |  | -4.8986 Log AC50 (M) and -4.7486 Log AC50 (M) | 14.2 | -4.7986 Log AC50 (M) | 15.9 |  |
| CCOC(=O)c1ccnc(-n2ncc(C(OCCN3CCCCC3)c3ccccc3)c2-c2ccccc2Cl)c1 (stereo not shown) [NCGC00484789-01] |  | -5.0486 Log AC50 (M) and -4.9986 Log AC50 (M) | 8.94 | -5.0486 Log AC50 (M) and -4.9486 Log AC50 (M) | 14.2 |  |
| O=C(O)c1ccnc2cc(-c3nc4ccccc4n3CCN3CCCCC3)sc12 [NCGC00485470-01] |  | -5.2986 Log AC50 (M) and -5.1986 Log AC50 (M) | 6.33 | -5.2486 Log AC50 (M) | 7.1 |  |
| O=C(O)c1ccnc(-n2ncc(C(OCCN3CCCCC3)c3ccc(Cl)cc3)c2-c2ccccc2)c1 (stereo not shown) [NCGC00487049-01] |  | -4.7986 Log AC50 (M) and -4.8486 Log AC50 (M) | 15.9 | -4.7486 Log AC50 (M) | 15.9 |  |
| O=C(O)c1ccnc(-n2ncc(C(CC3CC3)OCCN3CCCCC3)c2-c2cccc(-c3ccccc3)c2)c1 (stereo not shown) [NCGC00487050-01] |  | -4.7986 Log AC50 (M) and -4.8486 Log AC50 (M) | 15.9 | -4.7986 Log AC50 (M) and -4.7486 Log AC50 (M) | 17.8 |  |
| O=C(O)c1ccnc(-n2ncc(C(OCCN3CCCCC3)c3cccc(-c4ccccc4)c3)c2-c2cccc(-c3ccccc3)c2)c1 (stereo not shown) [NCGC00487052-01] |  | -5.3986 Log AC50 (M) | 4.48 | -5.4986 Log AC50 (M) and -5.2986 Log AC50 (M) (2×) |  |  |
| O=C(O)c1ccnc(-n2ncc(C(OCCN3CCCCC3)c3cccc(-c4ccccc4)c3)c2-c2cccc(-c3ccccc3)c2)c1 (stereo not shown) [NCGC00487052-02] |  | -5.3986 Log AC50 (M) and -5.4486 Log AC50 (M) and -5.3486 Log AC50 (M) |  | -5.1486 Log AC50 (M) and -5.2486 Log AC50 (M) |  |  |
| CC(C)c1c(-c2cnn(C(C)(C)C)c2)[nH]c2c(C#N)cnn2c1=O [NCGC00488278-02] |  |  | 15.9 | -4.7986 Log AC50 (M) | 10 |  |
| CC(C)c1c(-c2cnn(C(C)(C)C)c2)[nH]c2c(C#N)cnn2c1=O [NCGC00488278-03] |  | -4.7486 Log AC50 (M) |  | -4.8986 Log AC50 (M) |  |  |
| CC(C)OC(=O)c1ccnc2cc(C(OCCN3CCCCC3)c3cccc(N)c3)sc12 (stereo not shown) [NCGC00488684-01] |  | -5.1986 Log AC50 (M) and -5.1486 Log AC50 (M) | 7.1 | -5.0986 Log AC50 (M) | 12.6 |  |
| CN1CCC(CNCc2nccc3c(=O)[nH]c(COc4ccc(Cc5ccccc5)cc4)nc23)C1 (stereo not shown) [NCGC00489856-01] |  | -4.7986 Log AC50 (M) and -4.8486 Log AC50 (M) | 15.9 |  | 17.8 |  |
| C=CC(=O)Nc1cccc(C(OCCN2CCCCC2)c2cc3nccc(C(=O)OC(C)C)c3s2)c1 (stereo not shown) [NCGC00493267-01] |  | -5.1486 Log AC50 (M) and -5.0486 Log AC50 (M) | 8.94 | -5.0486 Log AC50 (M) and -4.7986 Log AC50 (M) | 7.97 |  |
| Cc1nn2c(c1-c1ccccc1-c1ccccc1)N(Cc1cccc(C#N)c1)CCC2 [NCGC00499314-01] |  | -5.1486 Log AC50 (M) and -5.0486 Log AC50 (M) | 8.94 | -4.9986 Log AC50 (M) and -5.0986 Log AC50 (M) | 10 |  |
| Cc1cccc(CN2CCCn3nc(C)c(-c4ccccc4OCc4ccccc4)c32)n1 [NCGC00499716-01] |  | -4.8986 Log AC50 (M) and -4.7486 Log AC50 (M) | 15.9 | -4.8486 Log AC50 (M) | 12.6 |  |
| Cc1nn2c(c1-c1ccccc1Oc1ccccc1)N(CCCc1ccccc1)CCC2 [NCGC00499718-01] |  | -4.7986 Log AC50 (M) | 15.9 |  | 15.9 | -4.7986 Log AC50 (M) |
| Cc1cccc(CN2CCCn3nc(C)c(-c4ccccc4Oc4ccccc4)c32)n1 [NCGC00499720-01] |  | -4.7486 Log AC50 (M) | 20 | -4.7986 Log AC50 (M) | 15.9 |  |
| Cc1nn2c(c1-c1ccccc1-c1ccccc1)N(CCCc1ccccc1)CCC2 [NCGC00500005-01] |  | -5.0486 Log AC50 (M) | 7.97 | -5.0486 Log AC50 (M) and -4.8986 Log AC50 (M) | 8.94 |  |
